Data on 1 compound can be found in US20180289721A1, “FULVESTRANT COMPOSITIONS” (THEMIS MEDICARE LIMITED, priority 2015, published 2018).

Data set [1] in a line: Solubility studies of fulvestrant in solvents, co-solvents, oils and release rate modifiers. The conditions noted are these: for solubility: read-out: Fulvestrant solubility achieved. In kind it is physicochemical. Here is the method: Solubility studies of fulvestrant were performed using various combinations of solvent, co-solvents, oils and release rate modifiers. The resultant data are shown herein below Table 1.

The conditions of data set [2]: diethylene glycol monoethyl ether as the sole solvent, reported by Patel; cited from earlier work.

≈ marks a conversion by molar mass, not a printed value. Like-named read-outs stand apart in the source and are kept apart here.

As usually defined, the solubility is the dissolved amount per volume that the medium holds. As for `C[C@]12CC[C@@H]3c4ccc(O)cc4C[C@@H](CCCCCCCCC[S+]([O-])CCCC(F)(F)C(F)(F)F)[C@H]3[C@@H]1CC[C@@H]2O` (stereo partly drawn) [Fulvestrant, 7-alpha-[9-[(4,4,5,5,5-pentafluoropentyl)sulfinyl]nonyl]estra-1,3,5(10)-triene-3,17-beta-diol], the Fulvestrant solubility achieved in data set [1] (Benzyl alcohol (4 v/v %):Diethylene glycol monoethyl ether (q.s. to 1.7 mL)) stood at 300 mg/1.7 mL; in data set [1] (Benzyl alcohol (5 v/v %):Diethylene glycol monoethyl ether (q.s. to 3.3 mL)), 500 mg/3.3 mL. For the same compound, the solubility worked out at 250 mg/mL in data set [1] (N-methyl pyrrolidone, organic solvent or mixture, N-methyl Pyrolidone); 11.1 mg/mL in data set [1] (Polyethylene Glycol 400, organic solvent or mixture, Polyethylene Glycol 400); 30.8 mg/mL in data set [1] (TCLS-101 (DMI), organic solvent or mixture, TCLS-101 (DMI)); 56 mg/mL in data set [1] (oil or lipid, Benzyl alcohol (4 v/v %):Benzyl benzoate (10 w/v %):Castor oil (50 v/v %):Diethylene glycol monoethyl ether (q.s. to 1 mL)); 30 mg/mL in data set [1] (oil or lipid, Benzyl alcohol (4 v/v %):Diethylene glycol monoethyl ether (31 v/v %):Castor oil (q.s. to 1 mL)); 125 mg/mL in data set [1] (oil or lipid, Benzyl alcohol (4 v/v %):Diethylene glycol monoethyl ether (46 v/v %):Castor oil (q.s. to 1 mL)). Moreover, the solubility in data set [1] (oil or lipid, Benzyl alcohol (10 v/v %):Castor oil (50 v/v %):Diethylene glycol monoethyl ether (q.s. to 1 mL)) was 151 mg/mL; in data set [1] (organic solvent or mixture, Benzyl alcohol (2 v/v %):Diethylene glycol monoethyl ether (q.s. to 1 mL)), 200 mg/mL; in data set [1] (organic solvent or mixture, Benzyl alcohol (2 v/v %):MCT oil (1 v/v %):Diethylene glycol monoethyl ether (q.s. to 1 mL)), 200 mg/mL; in data set [1] (organic solvent or mixture, Benzyl alcohol (4 v/v %):Diethylene glycol monoethyl ether (q.s. to 1.7 mL)) it was 176 mg/mL; in data set [1] (organic solvent or mixture, Benzyl alcohol (5 v/v %):Diethylene glycol monoethyl ether (q.s. to 3.3 mL)) it was 151 mg/mL; in data set [2], 58.80 mg/mL (≈ 96.9 mM).
